Assay results taken from publication PMC9454270, “Peptidomimetic Small-Molecule Inhibitors of 3CLPro Activity and Spike–ACE2 Interaction: Toward Dual-Action Molecules against Coronavirus Infections” (The Journal of Organic Chemistry, 2022).
*1 amine or outer side, *2 acyl side, *3 side chain or, on linkers, in order; H or OH if unused. Where a SMILES comes first, the peptide text is derived from it. [ ]: non-standard residue; d: D form. X1 = O=C1CCN([*:1])CCN1[C@@H](Cc1ccccc1)C(=O)[*:2]

Experiments:
[1] = target: T1, 3CLPro enzyme, the main protease of SARS-CoV-2 (Severe acute respiratory syndrome coronavirus 2, UniProt P0DTD1); assay: biochemical; type: biochemical; conditions: for % In(3CLPro) at 100 μM: pH 7
T1 construct: 3CLPro enzyme, the main protease of SARS-CoV-2

SARS-CoV-2 infection = conditions: cited from earlier work
[2] = target: SARS-CoV-2 spike/ACE2 complex (RBD of Spike S protein binding to human receptor ACE2) (Severe acute respiratory syndrome coronavirus 2, UniProt P0DTC2); assay: biochemical; parameters: species or system SARS-CoV-2 / human

Compound	IC50 [1] [µM]	% In(3CLPro) at 100 μM [1]	inhibition potency toward SARS-CoV-2 infection (SARS-CoV-2 infection)	% In(spike–ACE2) at 100 μM [2]	IC50 [2] [µM]
NC(=O)CC[C@H](NC(=O)[C@H](Cc1ccc(O)cc1)NC(=O)[C@H](Cc1ccccc1)N1CCN(C(=O)[C@H](CC(=O)O)NC(=O)[C@@H](N)CCC(=O)O)CC1=O)C(N)=O [compound 15, H-ED(4b)YQ-NH2]	15	90–91%			
H-EDLFYQ-NH2 [EDLFYQ (SAP-6)]			millimolar range		
NC(=O)CC[C@H](NC(=O)[C@H](Cc1ccc(O)cc1)NC(=O)[C@H](Cc1ccccc1)N1CCN(C(=O)[C@H](CC(=O)O)NC(=O)[C@@H](N)CCC(=O)O)CCC1=O)C(N)=O [compound 16, H-ED(11b)YQ-NH2] (H-ED[X1]YQ-NH2)	127	45–57%		66–76%	20
